The term IC50 denotes the concentration that inhibits the measured activity by half. Read a high IC50 as weaker potency in that assay.

The text below walks through data of patent publication US20080027145A1, “Therapeutic Molecules and Methods for Generating and/or Selecting Same” (priority 2004, published 2008).

For one test, the target named is T1, Bcl-2 ΔC22 (Homo sapiens, UniProt P10415).
T1 construct: Human Bcl-2 (Acc. no. NP_000624; residues 1-217); made in house
The experiment in a line: Direct binding to immobilized BH3 peptide, Biacore biosensor. To be noted: BadBH3 or NoxaBH3 immobilized chip. Here is the method:
(§1) Recombinant human Bcl-xL ΔC24, mouse Mcl-1 ΔN151 ΔC23 and mouse A1 ΔC20 were expressed as GST fusion proteins and cleaved off Glutathione Sepharose columns as described (Day et al., Cell Death Differ 6:1125-1132, 1999; Hinds et al., EMBO J 22:1497-1507, 2003).
(§2) Affinity measurements were performed at room temperature on a Biacore 3000 biosensor (Biacore) with HBS (10 mM HEPES pH 7.2, 150 mM NaCl, 3.4 mM EDTA, 0.005% Tween 20) as the running buffer. Mouse 26-mer ^wtBimBH3, ^4EBimBH3 mutant, BadBH3, NoxaBH3 or control irrelevant peptides were immobilized onto CM5 sensor chips using amine-coupling chemistry (Wilson-Annan et al., Supra). To assess the binding affinities of pro-survival Bcl-2-like proteins for BimBH3 directly, the proteins were directly injected into the sensor chip at 20 μl/min. Residual bound proteins were desorbed with 50 mM NaOH or 6 M GuHCl (pH 7.2), followed by two washes with running buffer. Binding kinetics were derived from sensorgrams, following subtraction of baseline responses, using BIA evaluation software (version 3, Biacore) (Wilson-Annan et al., Supra).
(§3) The binding constants of the pro-survival molecules for ^wtBimBH3, immobilized on sensor chip, were determined using biosensor experiments as described in Hinds et al., Supra; Wilson-Annan et al., Supra.
A general note: Surface plasmon resonance follows binding to a sensor surface in real time, without labels.

A further test has as its target T2, Bcl-w ΔC29 (Homo sapiens, UniProt Q92843, A128E/C29S).
T2 construct: human Bcl-w (Acc. no. NP_004041; residues 1-164; C29S A128E); made in house
T2 sequence (Q92843 1-164 C29S/A128E): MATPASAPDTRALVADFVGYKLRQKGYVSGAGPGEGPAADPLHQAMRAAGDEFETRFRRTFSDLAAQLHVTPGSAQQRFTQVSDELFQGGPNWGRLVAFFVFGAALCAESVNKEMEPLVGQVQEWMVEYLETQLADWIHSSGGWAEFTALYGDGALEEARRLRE
The test is described as above. To be noted: BadBH3 or NoxaBH3 immobilized chip. Here is the method: as §1, §2, §3

A further test deals with T3, Mcl-1 ΔN151 ΔC23 (Mus musculus, UniProt P97287).
T3 construct: mouse Mcl-1 (Acc. no. NP_031588; residues 152-308); GST (N, cleaved yes); made in house
T3 sequence (P97287 152-308): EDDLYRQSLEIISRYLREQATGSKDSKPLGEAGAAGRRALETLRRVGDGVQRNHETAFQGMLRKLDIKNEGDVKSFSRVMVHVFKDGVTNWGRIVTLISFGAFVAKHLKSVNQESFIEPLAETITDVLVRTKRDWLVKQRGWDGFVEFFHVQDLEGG
The test is described as above. To be noted: BadBH3 or NoxaBH3 immobilized chip. Here is the method:
as §1, §2, §3

The next test addresses T4, A1 ΔC20 (Mus musculus, UniProt Q07440).
T4 construct: mouse A1 (Acc. no. NP_033872; residues 1-152); GST (N, cleaved yes); made in house
T4 sequence (Q07440 1-152): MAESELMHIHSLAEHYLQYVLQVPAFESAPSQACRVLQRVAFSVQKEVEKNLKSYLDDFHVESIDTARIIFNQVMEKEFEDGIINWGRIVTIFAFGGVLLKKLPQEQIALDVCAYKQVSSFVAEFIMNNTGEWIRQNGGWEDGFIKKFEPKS
The description is as above. Conditions: BadBH3 or NoxaBH3 immobilized chip. Here is the method: as §1, §2, §3

The next test has as its target T5, Bcl-xL ΔC24 (Homo sapiens, UniProt Q07817).
T5 construct: Human Bcl-xL (Acc. no. NP_612815; residues 1-209); GST (N, cleaved yes); made in house
Described as above. To be noted: BadBH3 or NoxaBH3 immobilized chip. Here is the method: as §1, §2, §3

In test [1] the test system is pro-survival proteins (Bcl-2, Bcl-xL, Bcl-w, Mcl-1, A1). Put plainly: Solution competition assay, statements spanning several pro-survival proteins. To be noted: Bcl-2, Bcl-xL, Bcl-w, Mcl-1, A1. The class given is binding, human and mouse. Here is the method: (§4) The relative affinities of BH3 peptides for pro-survival Bcl-2 proteins were assessed by comparing their abilities to compete with immobilized ^wtBimBH3 peptide for binding to Bcl-2-like proteins (Wilson-Annan et al., Supra). A fixed sub-saturating amount (10 nM) of a pro-survival Bcl-2 protein was incubated with varying amounts of competitor BH3 peptide in HBS for >2 hr on ice. The mixtures were then injected over a sensor chip containing a channel bearing mouse ^wtBimBH3 and a control channel with mouse ^4EBimBH3 immobilized. The baseline response (control channel) was subtracted to obtain the absolute binding response. Taking the response for the pro-survival protein alone as the maximal response (100%), the relative residual binding (%) in the presence of increasing amounts of competitor peptides at a given injection time point (430 s) was then calculated. […] Theoretically, IC50=[A]/2+KD, where [A] is the analyte concentration.
(§5) Some of recombinant proteins (Bcl-2, Bcl-xL, A1) studied contain cysteine residues but the behavior of Bcl-2 or Bcl-xL was not affected by dithiothreitol (DTT).
(§6) To assess if other BH3 peptides bind pro-survival proteins similarly, we directly compared their binding affinities in solution using a competitive binding assay. In such assays, the quality and absolute quantity of target proteins are less critical than in direct binding, and solution binding precludes the steric hindrance encountered with some immobilized peptides. FIG. 1C illustrates the approach: pre-incubation of Bcl-xL in solution with increasing amounts of BikBH3 reduced its binding to ^wtBimBH3 (FIG. 1D). From the attenuation in binding, the IC50 (competitor peptide concentration that halves binding) of BikBH3 can be calculated (FIG. 1E). As the IC50 values reflect relative binding affinities (see Experimental Procedures), we used this assay to compare the binding affinities of eight BH3 peptides (Table 3) to the five pro-survival proteins. […] Their binding properties fell into several classes (FIG. 2B and FIG. 4). […] Contrary to the prevailing view, the pro-survival proteins also had unique patterns for BH3 binding: Bcl-xL behaved like Bcl-w, with Bcl-2 more distinct, whereas Mcl-1 and A1 formed a separate group (FIG. 2B).

For another test, the target named is T6, Mcl-1 (Mus musculus, UniProt P97287).
T6 construct: mouse Mcl-1 (Acc. no. NP_031588; residues 152-308); GST (N, cleaved yes); made in house
T6 sequence (P97287 152-308): as the sequence (P97287 152-308) above
Put plainly: Solution competition assay (competition with immobilized wtBimBH3, biosensor). The class given is binding. To be noted: Mcl-1. Here is the method: as §4, §5, §6

T1 sequence (P10415 1-217): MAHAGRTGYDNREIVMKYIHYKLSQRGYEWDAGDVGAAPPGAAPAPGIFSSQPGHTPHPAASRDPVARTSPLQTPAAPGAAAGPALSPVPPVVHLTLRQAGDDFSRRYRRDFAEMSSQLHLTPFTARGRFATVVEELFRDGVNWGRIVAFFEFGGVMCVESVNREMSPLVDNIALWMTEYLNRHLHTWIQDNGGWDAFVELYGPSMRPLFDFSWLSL
T5 sequence (Q07817 1-209): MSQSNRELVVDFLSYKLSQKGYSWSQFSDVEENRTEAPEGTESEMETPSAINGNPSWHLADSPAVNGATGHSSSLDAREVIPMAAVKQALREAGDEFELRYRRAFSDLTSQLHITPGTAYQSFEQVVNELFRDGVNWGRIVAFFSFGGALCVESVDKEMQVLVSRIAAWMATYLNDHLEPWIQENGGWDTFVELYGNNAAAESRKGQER

For the molecule `CSCC[C@H](NC(=O)[C@H](CCCNC(=N)N)NC(=O)[C@H](CCCNC(=N)N)NC(=O)[C@H](CC(C)C)NC(=O)[C@H](CCC(=O)O)NC(=O)[C@H](CCCNC(=N)N)NC(=O)CNC(=O)[C@H](Cc1ccc(O)cc1)NC(=O)[C@H](CCCNC(=N)N)NC(=O)[C@H](CCC(N)=O)NC(=O)[C@H](C)NC(=O)[C@H](C)NC(=O)[C@H](Cc1c[nH]c2ccccc12)NC(=O)[C@H](CC(C)C)NC(=O)[C@@H](N)CC(N)=O)C(=O)N[C@@H](CO)C(=O)N[C@@H](CC(=O)O)C(=O)N[C@@H](CCC(=O)O)C(=O)N[C@@H](Cc1ccccc1)C(=O)N[C@H](C(=O)N[C@@H](CC(=O)O)C(=O)N[C@@H](CO)C(=O)N[C@@H](Cc1ccccc1)C(=O)N[C@@H](CCCCN)C(=O)N[C@@H](CCCCN)C(=O)NCC(=O)O)C(C)C` [BadBH3], the “binding of Bcl-2 to immobilized peptide” value on Bcl-2 ΔC22 is reported as “avidly”. Also, the “binding of Bcl-w to immobilized peptide” value on Bcl-w ΔC29 was “avidly”. The “binding of Mcl-1 to immobilized peptide” value at Mcl-1 ΔN151 ΔC23 is on record as “no affinity”. In addition, the “binding of A1 to immobilized peptide” value at A1 ΔC20 is “no affinity”. For the same molecule, the “binding of Bcl-xL to immobilized peptide” value at Bcl-xL ΔC24 is “avidly”. Besides, the “binding preference among pro-survival proteins” value in test [1] was “strongly preferred Bcl-2, BCl-xL and Bcl-w”. The molecule also showed an IC50 on Mcl-1 above 100 µM.
